Here are results for one compound from patent publication US10131652B2, “Pyrimidinyloxy benzene derivatives as herbicides” (E. I. DU PONT DE NEMOURS AND COMPANY, priority 2014, dated 2018).

Holding throughout (assay): Test A pre-/postemergence plant response
What all share (type): in vivo
Conditions in all cases: 0 to 100 scale, 0 is no effect, 100 is complete control

For experiment [1], the system named is giant foxtail (Setaria faberii). An excerpt:
(§1) Seeds of plant species selected from downy bromegrass (Bromus tectorum), cocklebur (common cocklebur, Xanthium strumarium), wild oat (Avena fatua), barnyardgrass (Echinochloa crus-galli), large (Lg) crabgrass (Digitaria sanguinalis), giant foxtail (Setaria faberii), morningglory (Ipomoea spp.), velvetleaf (Abutilon theophrasti), and sorghum (Sorghum vulgare) were planted into a sandy loam soil and treated preemergence by soil drench using test a chemical formulated in a non-phytotoxic solvent mixture which included a surfactant. At the same time these species were also treated postemergence sprayed to runoff using a test chemical formulated in the same manner. Plants ranged in height from 2 to 18 cm and were in the one- to two-leaf stage for the postemergence treatment. Treated plants and untreated controls were maintained in a greenhouse for approximately 11 days, after which time all treated plants were compared to untreated controls and visually evaluated for injury. Plant response ratings, summarized in Table A, are based on a 0 to 100 scale where 0 is no effect and 100 is complete control. A dash (-) response means no test result.

The subject of experiment [2] is velvetleaf (Abutilon theophrasti).
Excerpt: as §1

The subject of experiment [3] is sorghum (Sorghum vulgare).
Excerpt: as §1

The subject of another experiment is wild oat (Avena fatua).
Excerpt: as §1

Experiment [4] has as its system large (Lg) crabgrass (Digitaria sanguinalis).
Excerpt: as §1

Experiment [5] has as its system barnyardgrass (Echinochloa crus-galli).
Excerpt: as §1

Experiment [6] deals with cocklebur (common cocklebur, Xanthium strumarium).
Excerpt: as §1

The test system of experiment [7] is downy bromegrass (Bromus tectorum).
Excerpt: as §1

Experiment [8] has as its system morningglory (Ipomoea spp.).
Excerpt: as §1

Setting [9] is: 1000 g ai/ha, Post Sprayed to Runoff.

As for `Cc1ccc(Oc2ncc(Cl)cn2)c(-c2cccc(C(F)(F)F)c2)c1` [Compound 39], the “Plant response rating, Foxtail, Giant” value is recorded as 30 in experiment [1] (setting [9]) and 100 in [1] (2000 g ai/ha, Pre Soil Drench). For the same compound, the “Plant response rating, Velvetleaf” value in [2] (setting [9]) is 60; in experiment [2] (2000 g ai/ha, Pre Soil Drench) it was 70. The “Plant response rating, Sorghum” value amounted to 30 in experiment [3] (setting [9]) and 50 in [3] (2000 g ai/ha, Pre Soil Drench). The “Plant response rating, Oat, Wild” value in the experiment on wild oat (Avena fatua) (setting [9]) was 20; in the experiment on wild oat (Avena fatua) (2000 g ai/ha, Pre Soil Drench), 90. In addition, the “Plant response rating, Crabgrass, Large” value in experiment [4] (setting [9]) is recorded as 50; in [4] (2000 g ai/ha, Pre Soil Drench), 90. For the same compound, the “Plant response rating, Barnyardgrass” value in experiment [5] (setting [9]) came out at 50; in experiment [5] (2000 g ai/ha, Pre Soil Drench), 90. Besides, the “Plant response rating, Cocklebur” value in experiment [6] (setting [9]) came to 40; in experiment [6] (2000 g ai/ha, Pre Soil Drench), 0. Moreover, the “Plant response rating, Bromegrass, Downy” value in experiment [7] (setting [9]) turned out to be 20; in experiment [7] (2000 g ai/ha, Pre Soil Drench), 70. Besides, the “Plant response rating, Morningglory” value in [8] (setting [9]) was found to be 30; in [8] (2000 g ai/ha, Pre Soil Drench) it was 0.
